What was measured:
[1] = tested on: mushroom tyrosinase (Sigma T3824); assay: Mushroom Tyrosinase Inhibition Assay; format: biochemical; conditions: 10 μM compound, 300 μM L-Tyrosine, 84 units/mL enzyme, pH 6.5, 15 min room temperature
Description: 10 μM compound, 300 μM L-Tyrosine, and 84 units/mL of mushroom tyrosinase (Sigma T3824) were combined into 0.05 M potassium monophosphate buffer at pH=6.5, and incubated for 15 min at room temperature. Absorbance was recorded at 490 nm. % tyrosinase inhibition was calculated as follows: (AbsDMSO−Abscmpd)/AbsDMSO×100. The assay was performed for various compounds described herein, as well as for control compounds 4-ethyl resorcinol (4ER), 4-isopropylresorcinol (4IPR), 4-hexylresorcinol (4HR), 4-cyclohexylresorcinol (4CHR), 5-methylresorcinol (5MR), kojic acid (KA), and hydroquinone (HQ), structures of which are shown below.

[2] = tested on: human neonatal epidermal melanocytes (HEMn-DP) / HaCaT cells co-culture; assay: Melanocyte-HaCaT Co-Culture Assay; format: cell-based; conditions: 10 μM concentration, 72 h, corrected for viability (Calcein-AM)
Description: Darkly pigmented human neonatal epidermal melanocytes (HEMn-DP, Invitrogen) were grown in Medium 254 with HMGS-2 supplement and P/S at 37° C. and 5% CO2. HaCaT cells were grown in DMEM, 10% FBS, P/S at 37° C., 5% CO2. Co-culture was conducted in 50% melanocyte media+50% keratinocyte media (EpiLife with EDGS, P/S). Cells were plated in the co-culture media at 40K (HaCaT) and 30K (HEMn-DP) per well in a 24-well plate. After 24 h of incubation at 37° C. and 5% CO2, media was changed to M153 (MCDB153 Sigma M7403 with NaHCO3 pH to 7.1, 2 mM Tyrosine, 10 nM NDP-aMSH, 3 ng/mL bFGF, 2.8 ug/mL Hydrocortisone, 10 ug/mL Insulin, 10 ug/mL Transferrin, and P/S), treated with compound, and incubated for 72 h at 37° C. and 5% CO2. After measuring cellular viability with Calcein-AM (RFU Ex/Em=488/525 nm), cells were lysed at 1 h at 65° C. with 1N NaOH+10% DMSO. Absorbance of cleared lysate was measured at 405 nm and 660 nm. % melanin was calculated as follows: ((Abs405DMSO−Abs660DMSO)/CalceinDMSO)−(Abs405comp−Abs660comp)/Calceincomp))/(Abs405DMSO−Abs660DMSO)/CalceinDMSO×100. At 10 μM concentration, % cellular melanin was 42% in the presence of compound 4,5CHMR.

With `Cc1cc(O)cc(O)c1Cc1ccccc1` [4,5BnMR, 4-benzyl-5-methylbenzene-1,3-diol] as the compound, how does the “Mushroom Tyrosinase (% remaining enzyme activity) % TYR Activity” value [1] read?
Its value is 97%.

With `Oc1cc(O)c(Cc2ccccc2)c(C(F)(F)F)c1` [4,5BnTFMR, 2-Benzyl-1,5-dihydroxy-3-trifluoromethyl-benzene] as the compound, how does the “Mushroom Tyrosinase (% remaining enzyme activity) % TYR Activity” value [1] read?
Its value is 93%.

With `Oc1cc(O)c(C2CCCCC2)c(F)c1` [4,5CHFR, 4-cyclohexyl-5-fluorobenzene-1,3-diol] as the compound, how does the “Mushroom Tyrosinase (% remaining enzyme activity) % TYR Activity” value [1] read?
The value was 1%.

What does the source list for `Cc1cc(O)cc(O)c1C1CCCCC1` [4,5CHMR, 4-cyclohexyl-5-methylbenzene-1,3-diol]?
Mushroom Tyrosinase (% remaining enzyme activity) % TYR Activity [1]: 22%; % cellular melanin [2]: 42%

`Oc1cc(O)c(C2CCCCC2)c(C(F)(F)F)c1` [4,5CHTFMR] was tested. Which “Mushroom Tyrosinase (% remaining enzyme activity) % TYR Activity” value [1] did it give?
Its value is 100%.

`Cc1cc(O)cc(O)c1C1CCCC1` [4,5CPMR, 4-cyclopentyl-5-methylbenzene-1,3-diol] was tested. Which “Mushroom Tyrosinase (% remaining enzyme activity) % TYR Activity” value [1] did it give?
The value was 71%.

`Cc1cc(O)cc(O)c1C1CC1` [4,5CPrMR, 4-cyclopropyl-5-methylbenzene-1,3-diol] was tested. Which “Mushroom Tyrosinase (% remaining enzyme activity) % TYR Activity” value [1] did it give?
The value was 30%.

For `Oc1cc(O)c(C2CCCCC2)c(F)c1` [4,5EFR, 4-cyclohexyl-5-fluorobenzene-1,3-diol], which “Mushroom Tyrosinase (% remaining enzyme activity) % TYR Activity” value [1] is on record?
The value was 3%.

With `CCc1c(C)cc(O)cc1O` [4,5EMR, 4-ethyl-5-methylbenzene-1,3-diol] as the compound, how does the “Mushroom Tyrosinase (% remaining enzyme activity) % TYR Activity” value [1] read?
Its value is 93%.

Which “Mushroom Tyrosinase (% remaining enzyme activity) % TYR Activity” value [1] does the source give for `CCc1c(O)cc(O)cc1C(F)(F)F` [4,5ETFMR, 2-Ethyl-1,5-dihydroxy-3-trifluoromethyl-benzene] here?
Its value is 102%.

How did the “Mushroom Tyrosinase (% remaining enzyme activity) % TYR Activity” value [1] turn out when `CCCCCCc1c(C)cc(O)cc1O` [4,5HMR, 4-hexyl-5-methylbenzene-1,3-diol] was run?
Its value is 10%.

With `Cc1cc(O)cc(O)c1C(C)C` [4,5IPMR, 4-isopropyl-5-methylbenzene-1,3-diol] as the compound, how does the “Mushroom Tyrosinase (% remaining enzyme activity) % TYR Activity” value [1] read?
The value was 108%.

How did the “Mushroom Tyrosinase (% remaining enzyme activity) % TYR Activity” value [1] turn out when `Cc1cc(O)cc(O)c1CC1CCCC1` [4,5MCPMR, 4-cyclopentylmethyl-5-methylbenzene-1,3-diol] was run?
The value was 32%.

For `Cc1cc(O)cc(O)c1C(C)c1ccccc1` (stereo not drawn) [4,5PEMR, 4-(1-phenylethyl)-5-methylbenzene-1,3-diol], which “Mushroom Tyrosinase (% remaining enzyme activity) % TYR Activity” value [1] is on record?
The value was 105%.

For `Cc1cc(O)cc(O)c1CC(F)(F)F` [4,5TFEMR, 4-(2,2,2-trifluoroethyl)-5-methylbenzene-1,3-diol], which “Mushroom Tyrosinase (% remaining enzyme activity) % TYR Activity” value [1] is on record?
The value was 103%.

How did the “Mushroom Tyrosinase (% remaining enzyme activity) % TYR Activity” value [1] turn out when `CCC(C)c1c(C)cc(O)cc1O` (stereo not drawn) [4,5sBMR, 4-sec-butyl-5-methylbenzene-1,3-diol] was run?
The value was 100%.

Which “Mushroom Tyrosinase (% remaining enzyme activity) % TYR Activity” value [1] does the source give for `Oc1ccc(C2CCCCC2)c(O)c1` [Compound 4CHR, 4-cyclohexylresorcinol, reference compound] here?
The value was 0%.

For `CCc1ccc(O)cc1O` [Compound 4ER, 4-ethyl resorcinol, reference compound], which “Mushroom Tyrosinase (% remaining enzyme activity) % TYR Activity” value [1] is on record?
Its value is 2%.

Which “Mushroom Tyrosinase (% remaining enzyme activity) % TYR Activity” value [1] does the source give for `CCCCCCc1ccc(O)cc1O` [Compound 4HR, 4-hexylresorcinol, reference compound] here?
Its value is 1%.

How did the “Mushroom Tyrosinase (% remaining enzyme activity) % TYR Activity” value [1] turn out when `CC(C)c1ccc(O)cc1O` [Compound 4IPR, 4-isopropylresorcinol, reference compound] was run?
The value was 1%.

`Cc1cc(O)cc(O)c1` [Compound 5MR, 5-methylresorcinol, reference compound] was tested. Which “Mushroom Tyrosinase (% remaining enzyme activity) % TYR Activity” value [1] did it give?
The value was 100%.

With `Oc1ccc(O)cc1` [Hydroquinone, hydroquinone, reference compound] as the compound, how does the “Mushroom Tyrosinase (% remaining enzyme activity) % TYR Activity” value [1] read?
The value was 100%.

Which “Mushroom Tyrosinase (% remaining enzyme activity) % TYR Activity” value [1] does the source give for `O=c1cc(CO)occ1O` [Kojic Acid, kojic acid, reference compound] here?
The value was 84%.

Source: patent publication US20140256830A1, “RESORCINOL COMPOUNDS FOR DERMATOLOGICAL USE” (Ampere Life Sciences, Inc., priority 2013, published 2014)
